The target of the test is T1, VirF (Shigella flexneri, UniProt P0A2T1).
T1 construct: full ORF in pET15b, His-tagged (tag apparently kept)
T1 sequence (P0A2T1 whole entry): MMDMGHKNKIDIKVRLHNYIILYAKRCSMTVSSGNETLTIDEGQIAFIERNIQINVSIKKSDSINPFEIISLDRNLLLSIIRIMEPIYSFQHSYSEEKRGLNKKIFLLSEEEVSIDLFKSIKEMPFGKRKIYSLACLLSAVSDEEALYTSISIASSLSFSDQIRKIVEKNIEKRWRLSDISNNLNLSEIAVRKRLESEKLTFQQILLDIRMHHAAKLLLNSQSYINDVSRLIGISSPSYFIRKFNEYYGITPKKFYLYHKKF
As to the kind of experiment: ELISA, fatty acid coated on plate, His-VirF detected by anti-His antibody. The settings on record: read-out: apparent Kd. In kind it is binding. For orientation: In an ELISA, binding on a coated surface is turned into a signal by an enzyme label.
`CCCCCC/C=C\CCCCCCCC(=O)O` [palmitoleic acid]: the Kd came out at 12.9 µM.
Consider `CCCCCCCCCCCCC/C=C\C(=O)O` [c2-HDA], for which the Kd stood at 8.2 µM.
With `CCCCCCCCCCCCCCCCC/C=C\C(=O)O` [c2-EA], the Kd was 11.2 µM.
The value for `CCCCCCCC/C=C\CCCCCCCC(=O)O` [oleic acid] was 14.3 µM; that for `CCCCCCCCCCCCC/C=C/C(=O)O` [t2-HDA] was 9.5 µM.

The values above are taken from PMC10519361, “Shigella flexneri utilizes intestinal signals to control its virulence” (Gut Microbes, 2023).
